Assay results reported in paper PMC4804716 (The FEBS journal, 2015).
Substitutions are numbered along the chain they refer to. Read-outs that look alike come from different tables or passages of the source.

Legend:
[1] = Cyclic voltammetry of menadione derivatives; assay type: physicochemical; settings: for Epa1 / Epc2 / Ipc1/Ipa1 / E^1½ / ΔEp (first wave): DMSO; for Epa1 / Epc2: 0.1 M n-Bu4NPF6, v = 200 mV s^−1, reference KCl(3 M)/Ag/AgCl; for Epa1 / Ipc1/Ipa1 / E^1½: first wave; for Epc2 / E^2½ / Epa2 / Ipc2/Ipa2 / ΔEp (second wave): second wave; for Ipc1/Ipa1 / ΔEp (first wave): 0.1 M n-Bu4NPF6, v = 200 mV s^−1; for E^1½ / E^2½: E½ = (Epc+Epa)/2; for E^1½: 0.1 M n-Bu4NPF6, reference KCl(3 M)/Ag/AgCl; for E^2½ / Epa2 / Ipc2/Ipa2 / ΔEp (second wave): irr: irreversible reduction; for ΔEp (first wave) / ΔEp (second wave): ΔE = Epa-Epc; for ΔE½: ΔE½ = E^1½-E^2½
[2] = target: T1, Schistosoma mansoni thioredoxin glutathione reductase (SmTGR) (Schistosoma mansoni, UniProt Q962Y6); experiment: SmTGR DTNB assay; assay type: biochemical
T1 sequence (Q962Y6 1-598): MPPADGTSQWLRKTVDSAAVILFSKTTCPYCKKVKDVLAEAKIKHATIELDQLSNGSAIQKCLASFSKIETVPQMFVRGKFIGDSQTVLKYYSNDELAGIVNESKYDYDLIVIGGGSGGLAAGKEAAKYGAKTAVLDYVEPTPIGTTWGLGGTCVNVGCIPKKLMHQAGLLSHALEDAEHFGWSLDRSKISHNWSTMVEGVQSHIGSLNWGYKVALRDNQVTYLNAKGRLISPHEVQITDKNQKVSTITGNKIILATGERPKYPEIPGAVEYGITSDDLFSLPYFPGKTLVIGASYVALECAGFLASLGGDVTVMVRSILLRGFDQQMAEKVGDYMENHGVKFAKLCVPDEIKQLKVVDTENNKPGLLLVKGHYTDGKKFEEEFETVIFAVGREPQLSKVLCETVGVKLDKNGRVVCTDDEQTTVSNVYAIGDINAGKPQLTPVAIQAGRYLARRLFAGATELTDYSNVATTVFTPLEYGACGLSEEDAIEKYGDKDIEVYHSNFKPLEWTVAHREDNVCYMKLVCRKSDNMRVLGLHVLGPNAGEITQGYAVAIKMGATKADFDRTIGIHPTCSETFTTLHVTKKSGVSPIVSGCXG

S. mansoni worms = experiment: Antischistosomal activity against adult, ex vivo worms; assay type: cell-based, Schistosoma mansoni; settings: for antischistosomal activity against cultured ex vivo worms: 50 μM compound alone
Placenta wild type hTrxR [3] = target: T2, Placenta wild type hTrxR (Homo sapiens, UniProt Q16881); experiment: hTrxR Trx assay; assay type: biochemical; settings: for IC50: IC50 hTrxR, text summary spanning the Trx assay and the DTNB assay; for IC50 fold higher for hTrxR than for SmTGR: selectivity hTrxR versus SmTGR
T2 sequence (Q16881 1-499 isoform Q16881-5): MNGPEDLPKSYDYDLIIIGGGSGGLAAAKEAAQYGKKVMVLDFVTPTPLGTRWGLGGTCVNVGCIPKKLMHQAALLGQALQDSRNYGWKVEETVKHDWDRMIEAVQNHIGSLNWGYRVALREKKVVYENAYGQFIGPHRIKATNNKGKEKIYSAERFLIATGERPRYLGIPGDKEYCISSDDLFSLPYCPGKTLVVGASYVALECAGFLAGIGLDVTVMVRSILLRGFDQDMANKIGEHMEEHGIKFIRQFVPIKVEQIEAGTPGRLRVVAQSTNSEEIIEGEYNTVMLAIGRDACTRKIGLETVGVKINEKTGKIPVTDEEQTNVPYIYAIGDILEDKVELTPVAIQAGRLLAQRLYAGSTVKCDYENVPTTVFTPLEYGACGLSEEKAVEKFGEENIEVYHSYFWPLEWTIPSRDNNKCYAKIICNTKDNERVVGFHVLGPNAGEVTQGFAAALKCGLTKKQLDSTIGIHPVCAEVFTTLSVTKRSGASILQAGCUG

[4] = target: T3, human glutathione reductase (hGR) (Homo sapiens, UniProt P00390); experiment: hGR assay; assay type: biochemical
T3 sequence (P00390 1-479 isoform P00390-2): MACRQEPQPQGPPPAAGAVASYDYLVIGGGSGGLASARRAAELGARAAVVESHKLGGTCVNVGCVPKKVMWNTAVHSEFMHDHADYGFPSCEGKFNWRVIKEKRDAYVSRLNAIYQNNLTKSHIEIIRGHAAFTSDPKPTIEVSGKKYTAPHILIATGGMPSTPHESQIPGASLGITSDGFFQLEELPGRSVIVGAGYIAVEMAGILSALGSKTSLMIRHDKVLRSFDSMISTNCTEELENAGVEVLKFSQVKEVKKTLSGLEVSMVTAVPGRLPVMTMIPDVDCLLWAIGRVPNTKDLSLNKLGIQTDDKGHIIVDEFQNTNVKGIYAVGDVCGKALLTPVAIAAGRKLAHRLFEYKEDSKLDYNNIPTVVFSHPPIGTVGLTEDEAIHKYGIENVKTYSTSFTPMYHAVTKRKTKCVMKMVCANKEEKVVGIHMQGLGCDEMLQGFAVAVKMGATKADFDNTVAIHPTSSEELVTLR

[5] = target: T1, Schistosoma mansoni thioredoxin glutathione reductase (SmTGR)
Placenta wild type hTrxR [6] = target: T2, Placenta wild type hTrxR; experiment: hTrxR DTNB assay; assay type: biochemical
Sec498Cys TrxR = target: T4, Sec498Cys TrxR (Homo sapiens, UniProt Q16881); experiment: hTrxR mutant DTNB assay; assay type: biochemical
T4 sequence (Q16881 with tags, fused parts or gaps isoform Q16881-5): T2 sequence (Q16881 1-499 isoform Q16881-5) with U498C

[7] = Cytotoxicity against human MRC-5 cells; assay type: cell-based; settings: human lung MRC-5 fibroblasts (MRC-5SV2 cells)
[8] = Glutathionylation reaction kinetics; assay type: physicochemical; settings: pH 7.5
[9] = 50 μM with hemoglobin 10 μM, 22h incubation

Epa1 [1] | Epc2 [1] | Ipc1/Ipa1 [1] | E^1½ [1] | E^2½ [1] | Epa2 [1] | Ipc2/Ipa2 [1] | ΔEp (first wave) [1] | IC50 [2] | IC50 (Placenta wild type hTrxR [3]) | IC50 [4] | IC50 (Placenta wild type hTrxR [6]) | IC50 (Sec498Cys TrxR) | ΔEp (second wave) [1] | Structure (SMILES) | antischistosomal activity against cultured ex vivo worms (S. mansoni worms) | also measured
−0.506 V | −1.132 V | 2.92 | −0.563 V | −1.126 V | −1.120 V | 1.75 | 114 mV | 200 nM | 800 to 1500 nM | 12 µM | 1500 nM | > 50 µM |  | COc1ccc(OCC2=C(C)C(=O)c3ccccc3C2=O)cc1C(F)(F)F [Compound 7, 2-((4-Methoxy-3-(trifluoromethyl)phenoxy)methyl)-3-methylnaphthalene-1,4-dione] | active | ΔE½ [1]: 563 mV; survival rates in the presence versus absence of RBCs after 24 hours (S. mansoni worms; 50 μM, human red blood cells 10 μl/well, 24 hours): identical; dead parasites in the absence versus presence of RBCs after 48 hours (S. mansoni worms; 50 μM, human red blood cells 10 μl/well, 48 hours): more parasites were dead in the absence of RBCs than in the presence of RBCs; IC50 fold higher for hTrxR than for SmTGR (Placenta wild type hTrxR [3]): around 5 fold; second order rate constant ki/KI [5]: 1180 M⁻¹ s⁻¹
 |  |  |  |  |  |  |  | 457 nM | 700 nM | 5.5 µM | 700 nM | > 100 µM |  | CC1=C(COc2ccc(Cl)cc2)C(=O)c2ccccc2C1=O [Compound 4, 2-((4-Chlorophenoxy)methyl)-3-methylnaphthalene-1,4-dione] |  | 
 |  |  |  |  |  |  |  | 407 nM | 2000 nM | > 25 µM | 2000 nM | > 100 µM |  | COc1c(F)cc(OCC2=C(C)C(=O)c3ccccc3C2=O)cc1F [Compound 3, 2-((3,5-Difluoro-4-methoxyphenoxy)methyl)-3-methylnaphthalene-1,4-dione] | most potent | 
 | −1.158 V | 1.89 |  | irr | irr | irr | 119 mV | 784 nM | 800 nM | > 5 µM | 800 nM | > 100 µM | irr | CC1=C(COc2ccc(Br)cc2)C(=O)c2ccccc2C1=O [Compound 5, 2-((4-Bromophenoxy)methyl)-3-methylnaphthalene-1,4-dione] |  | 
−0.244 V |  | 3.31 | −0.329 V |  |  |  | 170 mV | 144 nM | 13 to 14 nM | 2.1 µM | 14 nM | 0.37 µM |  | N#Cc1ccc(OCC2=C(C(F)F)C(=O)c3ccccc3C2=O)cc1 [Compound 8, 4-((3-(Difluoromethyl)-1,4-dioxo-1,4-dihydronaphthalen-2-yl)methoxy)benzonitrile] | inactive | killing of worms whether RBCs were present or not (S. mansoni worms; 50 μM, with or without human red blood cells (10 μl/well)): no effect on killing the worms; decrease of the k2 values compared to the difluoromenadione itself [8]: ~10 fold; IC50 at 3 days [7]: 6.7 µM
−0.492 V | −1.154 V | 2.29 | −0.556 V | −1.127 V | −1.100 V | 2 | 128 mV | 462 nM | 1200 to 1500 nM | 8.5 µM | 1200 nM | 6 µM | 54 mV | CC1=C(COc2ccc(C#N)cc2)C(=O)c2ccccc2C1=O [Compound 2, 4-((3-Methyl-1,4-dioxo-1,4-dihydronaphthalen-2-yl)methoxy)benzonitrile] | (moderately) active | ΔE½ [1]: 571 mV; female worms killed (S. mansoni worms; [9]): 100%; male worms killed (S. mansoni worms; [9]): 50%
 |  |  |  |  |  |  |  |  |  |  |  |  |  | O.O.O.O=C([O-])[C@H]([O-])[C@@H]([O-])C(=O)[O-].O=C([O-])[C@H]([O-])[C@@H]([O-])C(=O)[O-].[K+].[K+].[Sb+3].[Sb+3] [PAT, potassium antimonyl tartrate, reference compound] |  | IC50 ([2]; read-out: IC50 SmTGR assay, pH 7, 25°C, 100 μM NADPH, 3 mM DTNB): 173 nM; dead worms (S. mansoni worms; drug reference, after two days): 100%

Structure (SMILES) | Epa1 [1] | Epc2 [1] | Ipc1/Ipa1 [1] | E^1½ [1] | E^2½ [1] | Epa2 [1] | Ipc2/Ipa2 [1] | ΔEp (first wave) [1] | IC50 [2] | IC50 (Placenta wild type hTrxR [3]) | IC50 [4] | IC50 (Placenta wild type hTrxR [6]) | IC50 (Sec498Cys TrxR) | ΔEp (second wave) [1] | antischistosomal activity against cultured ex vivo worms (S. mansoni worms) | also measured
CC1=C(COc2ccc(C(=O)O)cc2)C(=O)c2ccccc2C1=O [Compound 1, 4-((3-Methyl-1,4-dioxo-1,4-dihydronaphthalen-2-yl)methoxy)benzoic acid] | −0.532 V | −1.265 V | 1.27 | −0.580 V | irr | irr | irr | 96 mV | 482 nM | 2000 to 3000 nM | 2.3 µM | 3000 nM | 40 µM | irr | able to kill cultured adult worms | IC50 at 3 days [7]: 6.55 µM
CC1=C(COc2cccc(C(F)(F)F)c2)C(=O)c2ccccc2C1=O [Compound 6, 2-Methyl-3-((3-(trifluoromethyl)phenoxy)methyl)naphthalene-1,4-dione] |  |  |  |  |  |  |  |  | 166 nM | 1500 to 3000 nM | 0.6 µM | 1500 nM | > 50 µM |  | inactive | IC50 fold higher for hTrxR than for SmTGR (Placenta wild type hTrxR [3]): around 10 fold
